Results on 8 compounds are retold here after PubChem BioAssay (NCI).

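Step 1: Grow cells in 96-well plates. Step 2: Expose to compound for 48 hours at 5 concentrations. Step 3: Interpolate endpoints linearly; if unreached, use highest concentration. GI50 is the concentration that inhibits growth by half. TGI marks complete inhibition of growth.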

Test systems include IGROV1 ovarian; SK-MEL-28 melanoma; RXF 393 renal; DU-145 prostate; TK-10 renal; M14 melanoma; NCI-H460 lung; UACC-257 melanoma; OVCAR-3 ovarian; SNB-19 CNS.
Test in all cases: NCI-60 cell line screen, 48 h

`O=C1/C(=C/c2ccccc2)CN(C(=O)CCN2CCCC2)C/C1=C\c1ccccc1`: the TGI in the assay on IGROV1 ovarian came out at 7.75 µM; in the assay with SK-MEL-28 melanoma, 3.38 µM; in the assay on RXF 393 renal it was 5.24 µM; with DU-145 prostate it was 18.1 µM; in the assay with TK-10 renal it was 8.62 µM; with M14 melanoma, 3.62 µM. Moreover, the TGI worked out at 4.52 µM in the assay on NCI-H460 lung, 6.65 µM in the assay on UACC-257 melanoma, 7.66 µM in the assay with OVCAR-3 ovarian and 6.69 µM with SNB-19 CNS.
On to `Cc1c2cc(Cl)c3ccccc3c2c[n+]2ccccc12`, for which the GI50 in the assay with IGROV1 ovarian is 9.18 µM; in the assay on SK-MEL-28 melanoma, 1.8 µM; in the assay on RXF 393 renal, 12.3 µM; with DU-145 prostate, 12.8 µM; in the assay on TK-10 renal, 23.1 µM; with M14 melanoma it was 3.62 µM. Besides, the GI50 is 4.12 µM in the assay with NCI-H460 lung, 4.27 µM in the assay with UACC-257 melanoma, 1.62 µM in the assay with OVCAR-3 ovarian and 0.525 µM in the assay with SNB-19 CNS. Besides, the TGI in the assay on IGROV1 ovarian is 60.3 µM; in the assay on SK-MEL-28 melanoma, 4.87 µM; in the assay on RXF 393 renal, more than 65.5 µM; in the assay with DU-145 prostate, 31.6 µM; in the assay with TK-10 renal, more than 100 µM; with M14 melanoma it was 15.5 µM. Also, the TGI in the assay on NCI-H460 lung worked out at 16.9 µM; in the assay with UACC-257 melanoma, 17.9 µM; with OVCAR-3 ovarian it was 5.41 µM; in the assay on SNB-19 CNS it was 2.76 µM.
Take `O=C1CC(c2[nH]nc3ccccc23)C(=O)N1c1ccccc1` (stereo not given): the TGI with IGROV1 ovarian, in the assay with SK-MEL-28 melanoma, with RXF 393 renal, in the assay with DU-145 prostate, in the assay on TK-10 renal and in the assay with M14 melanoma was more than 100 µM in each case. In addition, the TGI in the assay on NCI-H460 lung, in the assay with UACC-257 melanoma, with OVCAR-3 ovarian and in the assay with SNB-19 CNS was more than 100 µM in each case.
Consider `COc1cc2c(cc1OC)C(=O)/C(=C/c1cc(-c3ccc4c(c3)OCO4)n[nH]1)C2`, for which the GI50 is 1.89 µM in the assay on IGROV1 ovarian; 1.89 µM with SK-MEL-28 melanoma; 1.54 µM with RXF 393 renal; 1.45 µM with DU-145 prostate; 1.89 µM with TK-10 renal; 1.82 µM in the assay on M14 melanoma. Besides, the GI50 in the assay with NCI-H460 lung was 1.68 µM; in the assay on UACC-257 melanoma, 1.71 µM; in the assay with OVCAR-3 ovarian, 1.41 µM; with SNB-19 CNS it was 1.55 µM. Moreover, the TGI was found to be 4.58 µM with IGROV1 ovarian; 3.4 µM with SK-MEL-28 melanoma; 3.19 µM with RXF 393 renal; 2.86 µM with DU-145 prostate; 3.36 µM in the assay with TK-10 renal; 3.4 µM in the assay with M14 melanoma. For the same compound, the TGI was 3.79 µM with NCI-H460 lung, 3.13 µM in the assay on UACC-257 melanoma, 2.8 µM in the assay on OVCAR-3 ovarian and 2.96 µM with SNB-19 CNS.
`O=c1cc(N/N=C/c2ccc(F)cc2)c2cc(Cl)ccc2[nH]1`: the GI50 was 18.5 µM in the assay with IGROV1 ovarian; 19.8 µM in the assay on SK-MEL-28 melanoma; 23.7 µM in the assay with RXF 393 renal; 33.9 µM in the assay on DU-145 prostate; 47.1 µM with TK-10 renal; 10.2 µM in the assay with M14 melanoma. Also, the GI50 in the assay with NCI-H460 lung was 20.3 µM; in the assay with UACC-257 melanoma, 15.5 µM; in the assay on OVCAR-3 ovarian, 24.8 µM; with SNB-19 CNS it was 23.5 µM. The TGI with IGROV1 ovarian, with SK-MEL-28 melanoma, with RXF 393 renal, in the assay with DU-145 prostate, in the assay on TK-10 renal and in the assay with M14 melanoma was more than 100 µM in each case. Besides, the TGI in the assay with NCI-H460 lung was more than 100 µM; in the assay on UACC-257 melanoma it was 56.5 µM; in the assay with OVCAR-3 ovarian, more than 100 µM; with SNB-19 CNS it was more than 100 µM.
Regarding `CN(C)c1nc2ccccc2c2c1c1c(n2Cc2ccccc2)-c2ccccc2C1=O`, the GI50 was 27.2 µM in the assay with IGROV1 ovarian; more than 100 µM with SK-MEL-28 melanoma; more than 100 µM with RXF 393 renal; more than 100 µM in the assay with DU-145 prostate; more than 100 µM in the assay on TK-10 renal; more than 100 µM with M14 melanoma. Also, the GI50 in the assay with NCI-H460 lung, with UACC-257 melanoma, in the assay on OVCAR-3 ovarian and with SNB-19 CNS was more than 100 µM each time. The TGI in the assay on IGROV1 ovarian, in the assay on SK-MEL-28 melanoma, in the assay on RXF 393 renal, with DU-145 prostate, with TK-10 renal and in the assay on M14 melanoma was more than 100 µM throughout. Also, the TGI in the assay on NCI-H460 lung, in the assay on UACC-257 melanoma, with OVCAR-3 ovarian and with SNB-19 CNS was more than 100 µM in each case.
`CC(C)Cc1ccc(C(C)CC2=CCC(CN(C)C)C2=O)cc1` (stereo not given): the TGI with IGROV1 ovarian was 24 µM; in the assay with SK-MEL-28 melanoma, 21.9 µM; in the assay with RXF 393 renal, 14.3 µM; in the assay with DU-145 prostate it was 30.2 µM; with TK-10 renal it was more than 22.7 µM; in the assay on M14 melanoma, 17.2 µM. Moreover, the TGI with NCI-H460 lung stood at 48.9 µM; in the assay with UACC-257 melanoma, 26.9 µM; in the assay with OVCAR-3 ovarian, 24.9 µM; with SNB-19 CNS, 29.5 µM.
Consider `Cn1cc(-c2ccc3nnc(Sc4ccc5ncccc5c4)n3n2)cn1`, for which the GI50 with IGROV1 ovarian was more than 88.6 µM; with SK-MEL-28 melanoma it was more than 100 µM; in the assay on RXF 393 renal it was 26.6 µM; with DU-145 prostate, 73.3 µM; in the assay on TK-10 renal, 40.7 µM; with M14 melanoma, more than 100 µM. In addition, the GI50 in the assay with NCI-H460 lung is 79.2 µM; with UACC-257 melanoma, more than 100 µM; in the assay with OVCAR-3 ovarian it was more than 91.4 µM; in the assay with SNB-19 CNS, 47.3 µM. Besides, the TGI in the assay on IGROV1 ovarian, in the assay on SK-MEL-28 melanoma, with RXF 393 renal, in the assay on DU-145 prostate, in the assay on TK-10 renal and in the assay with M14 melanoma was more than 100 µM throughout. Also, the TGI with NCI-H460 lung, in the assay with UACC-257 melanoma, in the assay on OVCAR-3 ovarian and with SNB-19 CNS was more than 100 µM in each case.
